Laboratory results published in US12606541B2, “PPARg modulators and methods of use” (Eisai R&D Management Co., Ltd., priority 2020, dated 2026).

Tests used:
His6-TEV-PPARγ-(234-505) = molecular target: T1, His6-TEV-PPARγ-(234-505) (Homo sapiens, UniProt P37231); experiment: TR-FRET Assay to Measure Co-R Peptide Recruitment to PPARγ; format: biochemical; details: Co-R peptide (SMRT-ID2) recruitment; top final concentration 20 μM; read-out: TR-FRET i-Ag; AC50
T1 construct: The His6-TEV-PPARγ-(234-505) protein for assay was expressed and purified; TEV cleavage site (N); made in house
T1 sequence (P37231 234-505): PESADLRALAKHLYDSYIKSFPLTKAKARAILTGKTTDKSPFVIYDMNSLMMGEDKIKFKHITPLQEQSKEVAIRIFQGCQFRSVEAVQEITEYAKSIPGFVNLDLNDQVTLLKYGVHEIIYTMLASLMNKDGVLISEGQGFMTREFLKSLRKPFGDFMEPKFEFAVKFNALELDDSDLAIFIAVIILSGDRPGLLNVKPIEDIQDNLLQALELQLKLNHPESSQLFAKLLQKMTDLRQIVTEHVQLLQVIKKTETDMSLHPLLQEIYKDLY
Outline: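 His-tagged PPARγ (or controls) was preincubated with compound for 20 minutes at room temperature, then 5 nM anti-His terbium antibody and 200 nM FITC-labeled SMRT-ID2 corepressor peptide (final) were added for a further hour. TR-FRET signal was normalized to percent response using 500 nM T0070907 and DMSO controls.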

UM-UC-9 engineered cells = experiment: Cell proliferation / short-term viability assay, CellTiter-Glo 144 h; format: cell-based, human; details: read-out: CTGlo 144 h UMUC9.5, G150
Outline: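 UM-UC-9 engineered assay-ready cells seeded at 500 cells/well in high-glucose DMEM/10% FBS, treated from dose-response plates, grown at 37° C, 5% CO2. CellTiter-Glo 2.0 luminescence read on day 7, with a day-0 pretreatment plate as T0 reference and DMSO wells as negative control.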

| SMILES | AC50 (His6-TEV-PPARγ-(234-505)) | IC50 (UM-UC-9 engineered cells) |
| --- | --- | --- |
| COc1cc(-c2cc(C(=O)N3CCC(C(=O)NC4CN(CC(C)(C)F)CC4(F)F)CC34CC4)n[nH]2)c(F)cn1 (mixture of isomers) [Example 379, (S)—N—((S)-4,4-difluoro-1-(2-fluoro-2-methylpropyl)pyrrolidin-3-yl)-4-(5-(5-fluoro-2-methoxypyridin-4-yl)-1H-pyrazole-3-carbonyl)-4-azaspiro[2.5]octane-7-carboxamide and (S)—N—((R)-4,4-difluoro-1-(2-fluoro-2-methylpropyl)pyrrolidin-3-yl)-4-(5-(5-fluoro-2-methoxypyridin-4-yl)-1H-pyrazole-3-carbonyl)-4-azaspiro[2.5]octane-7-carboxamide] | 0.0122 µM | 0.011 µM |
| COc1cc(-c2cc(C(=O)N3CCC(C(=O)NC4CCOc5ccc(C)nc54)CC34CC4)n[nH]2)c(F)cn1 (mixture of isomers) [Example 380, (S)-4-(5-(5-fluoro-2-methoxypyridin-4-yl)-1H-pyrazole-3-carbonyl)-N—((R)-6-methyl-3,4-dihydro-2H-pyrano[3,2-b]pyridin-4-yl)-4-azaspiro[2.5]octane-7-carboxamide and (S)-4-(5-(5-fluoro-2-methoxypyridin-4-yl)-1H-pyrazole-3-carbonyl)-N—((S)-6-methyl-3,4-dihydro-2H-pyrano[3,2-b]pyridin-4-yl)-4-azaspiro[2.5]octane-7-carboxamide] | 0.0306 µM | 0.0437 µM |
| COc1cc(-c2cc(C(=O)N3CCC(C(=O)NCC4CCc5[nH]nc(C)c5C4)CC34CC4)n[nH]2)c(F)cn1 (mixture of isomers) [Example 382, (S)-4-(5-(5-fluoro-2-methoxypyridin-4-yl)-1H-pyrazole-3-carbonyl)-N—(((S)-3-methyl-4,5,6,7-tetrahydro-1H-indazol-5-yl)methyl)-4-azaspiro[2.5]octane-7-carboxamide and (S)-4-(5-(5-fluoro-2-methoxypyridin-4-yl)-1H-pyrazole-3-carbonyl)-N—(((R)-3-methyl-4,5,6,7-tetrahydro-1H-indazol-5-yl)methyl)-4-azaspiro[2.5]octane-7-carboxamide] | 0.004 µM | 0.01 µM |
| COc1cc(-c2cc(C(=O)N3CCC(C(=O)NC4CCOc5cc(F)cnc54)CC34CC4)n[nH]2)c(F)cn1 (mixture of isomers) [Example 383, (S)-4-(5-(5-fluoro-2-methoxypyridin-4-yl)-1H-pyrazole-3-carbonyl)-N—((R)-7-fluoro-3,4-dihydro-2H-pyrano[3,2-b]pyridin-4-yl)-4-azaspiro[2.5]octane-7-carboxamide and (S)-4-(5-(5-fluoro-2-methoxypyridin-4-yl)-1H-pyrazole-3-carbonyl)-N—((S)-7-fluoro-3,4-dihydro-2H-pyrano[3,2-b]pyridin-4-yl)-4-azaspiro[2.5]octane-7-carboxamide] | 0.0331 µM | 0.0431 µM |
| COc1cc(-c2cc(C(=O)N3CCC(C(=O)NC4CCN(c5cccnc5)C4)CC34CC4)n[nH]2)c(F)cn1 (mixture of isomers) [Example 390, (S)-4-(5-(5-fluoro-2-methoxypyridin-4-yl)-1H-pyrazole-3-carbonyl)-N—((R)-1-(pyridin-3-yl)pyrrolidin-3-yl)-4-azaspiro[2.5]octane-7-carboxamide and (S)-4-(5-(5-fluoro-2-methoxypyridin-4-yl)-1H-pyrazole-3-carbonyl)-N—((S)-1-(pyridin-3-yl)pyrrolidin-3-yl)-4-azaspiro[2.5]octane-7-carboxamide] | 0.0042 µM | 0.0071 µM |
| COc1cc(-c2cc(C(=O)N3CCC(C(=O)NC4CCN(C5COC5)C4)CC34CC4)n[nH]2)c(F)cn1 (mixture of isomers) [Example 396, (S)-4-(5-(5-fluoro-2-methoxypyridin-4-yl)-1H-pyrazole-3-carbonyl)-N—((R)-1-(oxetan-3-yl)pyrrolidin-3-yl)-4-azaspiro[2.5]octane-7-carboxamide and (S)-4-(5-(5-fluoro-2-methoxypyridin-4-yl)-1H-pyrazole-3-carbonyl)-N—((S)-1-(oxetan-3-yl)pyrrolidin-3-yl)-4-azaspiro[2.5]octane-7-carboxamide] | 0.0977 µM | 0.293 µM |
| COc1cc(-c2cc(C(=O)N3CCC(C(=O)NC(C)C45CCC(O)(CC4)CC5)CC34CC4)n[nH]2)c(F)cn1 (mixture of isomers) [Example 411, (S)-4-(5-(5-fluoro-2-methoxypyridin-4-yl)-1H-pyrazole-3-carbonyl)-N—((R)-1-(4-hydroxybicyclo[2.2.2]octan-1-yl)ethyl)-4-azaspiro[2.5]octane-7-carboxamide and (S)-4-(5-(5-fluoro-2-methoxypyridin-4-yl)-1H-pyrazole-3-carbonyl)-N—((S)-1-(4-hydroxybicyclo[2.2.2]octan-1-yl)ethyl)-4-azaspiro[2.5]octane-7-carboxamide] | 0.0372 µM | 0.0601 µM |
| COc1cc(-c2cc(C(=O)N3CCC(C(=O)NC(C)c4cn5c(n4)COCC5)CC34CC4)n[nH]2)c(F)cn1 (mixture of isomers) [Example 415, (S)—N—((S)-1-(5,6-dihydro-8-imidazo[2,1-c][1,4]oxazin-2-yl)ethyl)-4-(5-(5-fluoro-2-methoxypyridin-4-yl)-1H-pyrazole-3-carbonyl)-4-azaspiro[2.5]octane-7-carboxamide and (S)—N—((R)-1-(5,6-dihydro-8H-imidazo[2,1-c][1,4]oxazin-2-yl)ethyl)-4-(5-(5-fluoro-2-methoxypyridin-4-yl)-1H-pyrazole-3-carbonyl)-4-azaspiro[2.5]octane-7-carboxamide] | 0.163 µM | 0.524 µM |
| COc1cc(-c2cc(C(=O)N3CCC(C(=O)NC4CCC(C)(C)N(C)C4)CC34CC4)n[nH]2)c(F)cn1 (mixture of isomers) [Example 424, (S)-4-(5-(5-fluoro-2-methoxypyridin-4-yl)-1H-pyrazole-3-carbonyl)-N—((R)-1,6,6-trimethylpiperidin-3-yl)-4-azaspiro[2.5]octane-7-carboxamide and (S)-4-(5-(5-fluoro-2-methoxypyridin-4-yl)-1H-pyrazole-3-carbonyl)-N—((S)-1,6,6-trimethylpiperidin-3-yl)-4-azaspiro[2.5]octane-7-carboxamide] | 0.942 µM | 1.95 µM |
| COc1cc(-c2cc(C(=O)N3CCC(C(=O)NC4CCN(CCF)C(C)(C)C4)CC34CC4)n[nH]2)c(F)cn1 (mixture of isomers) [Example 425, (S)-4-(5-(5-fluoro-2-methoxypyridin-4-yl)-1H-pyrazole-3-carbonyl)-N—((S)-1-(2-fluoroethyl)-2,2-dimethylpiperidin-4-yl)-4-azaspiro[2.5]octane-7-carboxamide and (S)-4-(5-(5-fluoro-2-methoxypyridin-4-yl)-1H-pyrazole-3-carbonyl)-N—((R)-1-(2-fluoroethyl)-2,2-dimethylpiperidin-4-yl)-4-azaspiro[2.5]octane-7-carboxamide] | 0.901 µM | > 10 µM |
| COc1cc(-c2cc(C(=O)N3CCC(C(=O)NC4CN(C5CCOC5)C4)CC34CC4)n[nH]2)c(F)cn1 (mixture of isomers) [Example 433, (S)-4-(5-(5-fluoro-2-methoxypyridin-4-yl)-1H-pyrazole-3-carbonyl)-N-(1-((S)-tetrahydrofuran-3-yl)azetidin-3-yl)-4-azaspiro[2.5]octane-7-carboxamide and (S)-4-(5-(5-fluoro-2-methoxypyridin-4-yl)-1H-pyrazole-3-carbonyl)-N-(1-((R)-tetrahydrofuran-3-yl)azetidin-3-yl)-4-azaspiro[2.5]octane-7-carboxamide] | 0.0896 µM | 0.695 µM |
| COc1cc(-c2cc(C(=O)N3CCC(C(=O)Nc4cnn5ccc(C(C)O)nc45)CC34CC4)n[nH]2)c(F)cn1 (mixture of isomers) [Example 445, (S)-4-(5-(5-fluoro-2-methoxypyridin-4-yl)-1H-pyrazole-3-carbonyl)-N-(5-((R)-1-hydroxyethyl)pyrazolo[1,5-a]pyrimidin-3-yl)-4-azaspiro[2.5]octane-7-carboxamide and (S)-4-(5-(5-fluoro-2-methoxypyridin-4-yl)-1H-pyrazole-3-carbonyl)-N-(5-((S)-1-hydroxyethyl)pyrazolo[1,5-a]pyrimidin-3-yl)-4-azaspiro[2.5]octane-7-carboxamide] | 0.0012 µM | 0.0224 µM |
| COc1cc(-c2cc(C(=O)N3CCC(C(=O)NC4CCN(c5ccnc6[nH]ncc56)C4)CC34CC4)n[nH]2)c(F)cn1 (mixture of isomers) [Example 450, (S)—N—((S)-1-(1H-pyrazolo[3,4-b]pyridin-4-yl)pyrrolidin-3-yl)-4-(5-(5-fluoro-2-methoxypyridin-4-yl)-1H-pyrazole-3-carbonyl)-4-azaspiro[2.5]octane-7-carboxamide and (S)—N—((R)-1-(1H-pyrazolo[3,4-b]pyridin-4-yl)pyrrolidin-3-yl)-4-(5-(5-fluoro-2-methoxypyridin-4-yl)-1H-pyrazole-3-carbonyl)-4-azaspiro[2.5]octane-7-carboxamide] | 0.0015 µM | 0.114 µM |
